Laboratory results: patent publication US20240082218A1, “PHARMACEUTICAL COMBINATIONS COMPRISING A KRAS G12C INHIBITOR AND USES OF A KRAS G12C INHIBITOR FOR THE TREATMENT OF CANCERS” (priority 2020, published 2024)
Entries after “also recorded” stand apart in the source; their conditions may differ. Read-outs that look alike come from different tables or passages of the source.

Legend:
[1] = system: H358 cancer cells; test: Antiproliferation in H358 cancer cells; assay type: cell-based; conditions: Homo sapiens, NCI-H358
[2] = 4-week toxicity study; assay type: in vivo; conditions: rat
[3] = Oral exposure and tolerability in mouse
[4] = system: MIA PaCa-2 (KRASG12C pancreas) xenograft; test: Anti-tumor activity in MIA PaCa-2 xenografts; assay type: in vivo, mice
[5] = system: DUSP6 mRNA transcript; test: In vivo DUSP6 mRNA in MIA PaCa-2 xenografts; conditions: 30 mg/kg QD oral
[6] = biological target: NRAS WT (Homo sapiens, UniProt P01111); test: cRAF recruitment 6 h cellular assay; assay type: cell-based
NRAS WT, sequence (P01111 whole entry): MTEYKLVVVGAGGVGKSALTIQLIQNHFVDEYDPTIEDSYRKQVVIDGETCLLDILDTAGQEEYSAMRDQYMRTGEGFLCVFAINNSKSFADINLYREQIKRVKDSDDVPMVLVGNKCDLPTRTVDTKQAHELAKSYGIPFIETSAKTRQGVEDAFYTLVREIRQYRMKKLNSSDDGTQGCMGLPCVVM

[7] = Blood pharmacokinetics; conditions: in vivo
[8] = biological target: T1, KRASG12C (Homo sapiens, UniProt P01116, G12C); test: In vivo KRASG12C target occupancy in NCI-H2122 xenografts; parameters: endogenous in cells; conditions: 100 mg/kg QD oral
Experimental: (§1) KRASG12C inhibition can be assessed by measuring free KRASG12C levels (target occupancy) and other biomarkers in the MAPK signaling pathway, such as decreased levels of phosphorylated ERK1/2 (pERK) and downregulation of DUSP6 mRNA transcript. […] In the less sensitive NCI-H2122 xenografts, orally administered JDQ443 (100 mg/kg QD) achieved approximately 80% KRASG12C inhibition and 90% decrease in DUSP6 mRNA transcript, causing stasis which is the maximum response in this model upon MAPK pathway inhibition.

[9] = system: NCI-H2122 (KRASG12C lung) xenograft; assay type: in vivo, mice
[10] = system: HCC44 xenograft; test: Anti-tumor activity in HCC44 xenografts; assay type: in vivo, mice; conditions: 10, 30 and 100 mg/kg oral daily
[11] = system: Ba/F3 cells expressing FLAG-KRAS G12C/H95R; test: Ba/F3 3-day proliferation, Cell titer glo (Example 12); assay type: cell-based, murine; conditions: Mus musculus
Experimental: (§2) The parental Ba/F3 cells were cultured in the presence of 5 ng/ml of recombinant murine IL-3 (Life Technologies, #PMC0035).
(§3) The mutant plasmids were transfected into the Ba/F3 WT cells by electroporation with the NEON transfection kit (Invitrogen, #MPK10025).
(§4) Ba/F3 cells are normally dependent on IL-3 to survive and proliferate, however, by expressing oncogenes they are able to switch their dependency from IL-3 to the expressed oncogene. […] Cell number and viability was measured every three days and after seven days the IL-3 withdrawal was completed.
(§5) Treatment was performed on the same day with a Tecan D300e drug dispenser. Viability was detected on the same day of treatment for the start plate (Day 0) and three days post-treatment (Day 3) using the CellTiter-Glo Luminescent Cell Viability Assay (Promega, #G7573) on a Tecan infinitiy M200 Pro reader (Intergration Time 1000 ms).
(§6) To determine the growth, the three days post-treatment (Day 3) readout was normalized to start plate (Day 0). The percentage viability was then calculated by normalizing treated wells to DMSO treated control samples. XLfit was used to make the fitted curve with a Sigmoidal Dose-Response Model (four-parameter curve) (FIG. 7).

[12] = system: Ba/F3 cells expressing FLAG-KRAS G12C/R68S; test: as above; assay type: cell-based, murine; conditions: Mus musculus
Experimental: as §2, §3, §4, §5, §6

[13] = system: Ba/F3 cells expressing FLAG-KRAS G12C/Y96D; test: as above; assay type: cell-based, murine; conditions: Mus musculus
Experimental: as §2, §3, §4, §5, §6

[14] = system: Ba/F3 cells expressing FLAG-KRAS G12C/Y96C; test: as above; assay type: cell-based, murine; conditions: Mus musculus
Experimental: as §2, §3, §4, §5, §6

[15] = Oral exposure and tolerability in rat
[16] = biological target: T1, KRASG12C; test: cRAF recruitment 6 h cellular assay; assay type: cell-based
[17] = 4-week toxicity study; assay type: in vivo; conditions: dog
[18] = biological target: T1, KRASG12C; test: KRASG12C target occupancy in LU99 xenografts after 5 days treatment; assay type: in vivo; parameters: KRASG12C target occupancy was assessed after 5 days treatment of LU99 xenografts; endogenous in cells; host or cells: LU99 tumour xenografts in nude mice; conditions: single-agent 30 mg/kg vs 100 mg/kg
[19] = system: Lu99 KRAS G12C lung carcinoma xenograft; test: Anti-tumor efficacy in Lu99 KRAS G12C lung carcinoma xenografts; assay type: in vivo, mice
Experimental: It carries the allele NM_033360.4(KRAS):c.34G>T and consequently a heterozygous KRAS Gly12Cys mutation. Lu99 cells were grown in sterile conditions in a 37° C. incubator with 5% CO2 for two weeks. The cells were kept in RPMI media supplemented with 10% FCS, 2 mM L-Glutamin, 1 mM sodium pyruvate and 10 mM HEPES, and split 1:6 every 3 days. […] On the day of injection, cells were harvested after 8 passages in total, including passages from the vendor. Cells were resuspended in 50% HBSS and 50% Matrigel at a final concentration of 10·10^6 cells/ml.
Experiments were performed with female nude mice (Charles River Laboratories, Crl:NU(NCr)-Foxn1nu Homozygous). […] Animals were allowed to accommodate at least for 7 days.
Mice were injected subcutaneously with Lu99 human NSCLC cells to induce xenograft tumors and randomized into treatment groups when the mean tumor volume reached ˜250 mm^3.
The control group received a solution of 0.1% Tween 80 (Fisher Scientific AG #BP338-500) and 0.5% Methylcellulose in water.
The treatment period was between 9 to 28 days, depending on the groups.
Tumor growth was monitored regularly post cell inoculation and animals were randomized into treatment groups (n=6) when TV reached appropriate volume. During the treatment period, xenograft tumor sizes were measured about 2-3 times per week manually with calipers, and the TV was estimated in mm^3 using the formula: Length×Width^2/2.
Mice were injected subcutaneously with Lu99 human NSCLC cells to induce xenograft tumors and randomized into treatment groups when the mean tumor volume reached ˜200 mm^3. […] The treatment period was between 14 to 35 days, depending on the groups. Animals treated with vehicle were terminated at day 14. […] Tumor volumes were recorded and are represented as mean±SEM (standard error of the mean) for each group. Anti-tumor response of treatment groups vs. vehicle group was calculated at day 14 as % T/C or % regression.

[20] = biological target: T1, KRASG12C; test: In vitro KRAS G12C target occupancy in H358 cancer cells; assay type: cell-based; parameters: endogenous in cells; host or cells: H358 (NCI-H358) cancer cells; conditions: read-out: in vitro IC50 for inhibition of KRAS G12C (target occupancy)
Experimental: as §1

[21] = 10, 30 and 100 mg/kg oral daily
[22] = BaF3, 72 h, 3 days, 4 independent experiments, read-out: GI50 ± St DV

For C=CC(=O)N1CC2(CC(n3nc(-c4ccc5c(cnn5C)c4)c(-c4c(Cl)c(C)cc5[nH]ncc45)c3C)C2)C1 (single isomer, unassigned) [Compound A, 1-{6-[(4M)-4-(5-Chloro-6-methyl-1H-indazol-4-yl)-5-methyl-3-(1-methyl-1H-indazol-5-yl)-1H-pyrazol-1-yl]-2-azaspiro[3.3]heptan-2-yl}prop-2-en-1-one], the GI50 [1] was 30 nM, the “tolerability in 4-week toxicity study” value [2] was “well tolerated” and the oral bioavailability [3] was “orally bioavailable”. For the same compound, the tolerability [3] was “well-tolerated”, the anti-tumor activity ([4]; 3 mg/kg daily oral) was “tumor stasis” and the anti-tumor activity ([4]; 5 mg/kg twice daily, compared with 10 mg/kg daily) was “comparable regression”. For the same compound, the anti-tumor activity ([4]; 10 mg/kg daily oral) was “tumor regression”, the anti-tumor activity ([4]; 15 mg/kg twice daily, compared with 30 mg/kg qd) was “same tumor regression” and the “tumor growth inhibition by schedule” value ([4]; 30 mg/kg daily compared to 30 mg/kg q3d or 90 mg/kg q3d) was “better tumor growth inhibition”. The anti-tumor activity ([4]; 30 mg/kg daily oral) was “tumor regression”, the anti-tumor activity ([4]; 100 mg/kg daily oral) was “tumor regression” and the “pattern of maximal response” value [4, 21] was “regression”. The “decrease in DUSP6 mRNA transcript” value [5] was roughly 75%, the EC50 [6] was greater than 6000 nM and the half-life [7] was roughly 2 h. The inhibition at 100 mg/kg [8] was roughly 80%, the anti-tumor activity ([9]; 10 mg/kg daily oral) was “weak tumor-growth inhibition” and the anti-tumor activity ([9]; 30 mg/kg daily oral) was “moderate tumor-growth inhibition; also recorded: slightly less than tumor stasis”. For the same compound, the anti-tumor activity ([9]; 50 mg/kg twice daily oral) was “approximate tumor stasis”, the anti-tumor activity ([9]; 100 mg/kg daily oral) was “approximate tumor stasis” and the anti-tumor activity ([9]; 100 mg/kg daily oral, listed as JDQ443) was “stasis”. The “pattern of maximal response” value [9, 21] was “stasis-like”, the “pattern of maximal response” value [10] was “stasis-like” and the GI50 [11, 22] was 24 ± 6 nM. The GI50 ([11]; BaF3, read-out: GI50) was 24 ± 6 nM, the GI50 [12, 22] was greater than 1000 nM and the GI50 ([12]; BaF3, read-out: GI50) was greater than 1000 nM. The GI50 [13, 22] was greater than 1000 nM, the GI50 ([13]; BaF3, read-out: GI50) was greater than 1000 nM and the GI50 [14, 22] was greater than 1000 nM. The GI50 ([14]; BaF3, read-out: GI50) was greater than 1000 nM, the oral bioavailability [15] was “orally bioavailable” and the tolerability [15] was “well-tolerated”. For the same compound, the EC50 [16] was 20 nM, the “tolerability in 4-week toxicity study” value [17] was “well tolerated” and the “reduction of free KRAS^G12C in tumors” value [18] was “less reduction of free KRAS^G12C”. For the same compound, the “pattern of maximal response” value ([19]; LU99, 10, 30 and 100 mg/kg oral daily) was “regression”, the “anti-tumor response (Example 7)” value ([19]; Lu99, oral, Compound A 100 mg/kg once daily, TNO155 10 mg/kg twice daily continuous, alone or in combination) was “tumor regression for approximately two weeks” and the “anti-tumor response (Example 6)” value ([19]; Lu99, oral, Compound A 100 mg/kg once daily, TNO155 10 mg/kg twice daily, alone or in combination, up to 28 days) was “tumor regression for three weeks”. For the same compound, the IC50 [20] was 20 nM.
